Measured values reported in the supplement of paper PMC10307832.

What was measured:
Experiment in all cases: relative viability (nuclei count vs DMSO), 5 days (fraction); higher = more cells survive
201T = tested on: 201T
In short: (§1)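 Dosing by pin tool came one day after lung cancer cell lines were seeded in 1536-well plates, using either one drug or a fixed anchor-drug dose plus five library-drug doses (not always all listed) in √10 steps. After 5 days, nuclei were counted on 4× images. Relative viability is treated-well nuclei count divided by vehicle-well nuclei count, and values are medians of duplicate plates.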

CAL-12T = tested on: CAL-12T
In short: as §1

ChaGo-K-1 = tested on: ChaGo-K-1
In short: as §1

EMC-BAC-2 = tested on: EMC-BAC-2
In short: as §1

H3255 = tested on: H3255
In short: as §1

HOP-62 = tested on: HOP-62
In short: as §1

LXF-289 = tested on: LXF-289
In short: as §1

NCI-H1437 = tested on: NCI-H1437
In short: as §1

NCI-H1651 = tested on: NCI-H1651
In short: as §1

NCI-H1734 = tested on: NCI-H1734
In short: as §1

NCI-H1755 = tested on: NCI-H1755
In short: as §1

NCI-H1975 = tested on: NCI-H1975
In short: as §1

NCI-H2023 = tested on: NCI-H2023
In short: as §1

NCI-H2085 = tested on: NCI-H2085
In short: as §1

NCI-H2342 = tested on: NCI-H2342
In short: as §1

NCI-H2347 = tested on: NCI-H2347
In short: as §1

NCI-H23 = tested on: NCI-H23
In short: as §1

NCI-H2405 = tested on: NCI-H2405
In short: as §1

NCI-H441 = tested on: NCI-H441
In short: as §1

NCI-H460 = tested on: NCI-H460
In short: as §1

NCI-H838 = tested on: NCI-H838
In short: as §1

SW 900 = tested on: SW 900
In short: as §1

UMC-11 = tested on: UMC-11
In short: as §1

Oc1nc(-c2ccc(C(F)(F)F)cc2)nc2c1CSCC2 [XAV939] + CC(=O)Nc1cccc(-n2c(=O)n(C3CC3)c(=O)c3c(Nc4ccc(I)cc4F)n(C)c(=O)c(C)c32)c1 [Trametinib] (partner 0.02 µM)
relative viability (201T; first compound 0.08 µM): 0.78
relative viability (201T; first compound 0.253 µM): 0.648
relative viability (201T; first compound 0.8 µM): 0.685
relative viability (201T; first compound 2.53 µM): 0.569
relative viability (CAL-12T; first compound 0.08 µM): 0.346
relative viability (CAL-12T; first compound 0.253 µM): 0.257
relative viability (CAL-12T; first compound 0.8 µM): 0.272
relative viability (CAL-12T; first compound 2.53 µM): 0.223
relative viability (ChaGo-K-1; first compound 0.08 µM): 0.977
relative viability (ChaGo-K-1; first compound 0.253 µM): 0.82
relative viability (ChaGo-K-1; first compound 0.8 µM): 0.907
relative viability (ChaGo-K-1; first compound 2.53 µM): 0.802
relative viability (EMC-BAC-2; first compound 0.08 µM): 0.972
relative viability (EMC-BAC-2; first compound 0.253 µM): 0.875
relative viability (EMC-BAC-2; first compound 0.8 µM): 0.78
relative viability (EMC-BAC-2; first compound 2.53 µM): 0.671
relative viability (H3255; first compound 0.08 µM): 0.674
relative viability (H3255; first compound 0.253 µM): 0.528
relative viability (H3255; first compound 0.8 µM): 0.62
relative viability (H3255; first compound 2.53 µM): 0.425
relative viability (HOP-62; first compound 0.08 µM): 0.392
relative viability (HOP-62; first compound 0.253 µM): 0.329
relative viability (HOP-62; first compound 0.8 µM): 0.411
relative viability (HOP-62; first compound 2.53 µM): 0.312
relative viability (LXF-289; first compound 0.08 µM): 0.665
relative viability (LXF-289; first compound 0.253 µM): 0.632
relative viability (LXF-289; first compound 0.8 µM): 0.687
relative viability (LXF-289; first compound 2.53 µM): 0.729
relative viability (NCI-H1437; first compound 0.08 µM): 0.499
relative viability (NCI-H1437; first compound 0.253 µM): 0.407
relative viability (NCI-H1437; first compound 0.8 µM): 0.518
relative viability (NCI-H1437; first compound 2.53 µM): 0.29
relative viability (NCI-H1651; first compound 0.08 µM): 0.821
relative viability (NCI-H1651; first compound 0.253 µM): 0.724
relative viability (NCI-H1651; first compound 0.8 µM): 0.825
relative viability (NCI-H1651; first compound 2.53 µM): 0.816
relative viability (NCI-H1734; first compound 0.08 µM): 0.77
relative viability (NCI-H1734; first compound 0.253 µM): 0.616
relative viability (NCI-H1734; first compound 0.8 µM): 0.593
relative viability (NCI-H1734; first compound 2.53 µM): 0.647
relative viability (NCI-H1755; first compound 0.08 µM): 0.719
relative viability (NCI-H1755; first compound 0.253 µM): 0.64
relative viability (NCI-H1755; first compound 0.8 µM): 0.661
relative viability (NCI-H1755; first compound 2.53 µM): 0.692
relative viability (NCI-H1975; first compound 0.08 µM): 0.359
relative viability (NCI-H1975; first compound 0.253 µM): 0.296
relative viability (NCI-H1975; first compound 0.8 µM): 0.35
relative viability (NCI-H1975; first compound 2.53 µM): 0.275
relative viability (NCI-H2023; first compound 0.08 µM): 0.625
relative viability (NCI-H2023; first compound 0.253 µM): 0.365
relative viability (NCI-H2023; first compound 0.8 µM): 0.473
relative viability (NCI-H2023; first compound 2.53 µM): 0.407
relative viability (NCI-H2085; first compound 0.08 µM): 0.587
relative viability (NCI-H2085; first compound 0.253 µM): 0.436
relative viability (NCI-H2085; first compound 0.8 µM): 0.432
relative viability (NCI-H2085; first compound 2.53 µM): 0.314
relative viability (NCI-H2342; first compound 0.08 µM): 0.834
relative viability (NCI-H2342; first compound 0.253 µM): 0.781
relative viability (NCI-H2342; first compound 0.8 µM): 0.717
relative viability (NCI-H2342; first compound 2.53 µM): 0.446
relative viability (NCI-H2347; first compound 0.08 µM): 0.302
relative viability (NCI-H2347; first compound 0.253 µM): 0.278
relative viability (NCI-H2347; first compound 0.8 µM): 0.308
relative viability (NCI-H2347; first compound 2.53 µM): 0.236
relative viability (NCI-H23; first compound 0.08 µM): 0.383
relative viability (NCI-H23; first compound 0.8 µM): 0.403
relative viability (NCI-H23; first compound 2.53 µM): 0.349
relative viability (NCI-H2405; first compound 0.08 µM): 0.685
relative viability (NCI-H2405; first compound 0.253 µM): 0.591
relative viability (NCI-H2405; first compound 0.8 µM): 0.607
relative viability (NCI-H2405; first compound 2.53 µM): 0.412
relative viability (NCI-H441; first compound 0.08 µM): 0.513
relative viability (NCI-H441; first compound 0.253 µM): 0.366
relative viability (NCI-H441; first compound 0.8 µM): 0.414
relative viability (NCI-H441; first compound 2.53 µM): 0.484
relative viability (NCI-H460; first compound 0.08 µM): 0.164
relative viability (NCI-H460; first compound 0.253 µM): 0.0959
relative viability (NCI-H460; first compound 0.8 µM): 0.124
relative viability (NCI-H460; first compound 2.53 µM): 0.111
relative viability (NCI-H838; first compound 0.08 µM): 0.595
relative viability (NCI-H838; first compound 0.253 µM): 0.441
relative viability (NCI-H838; first compound 0.8 µM): 0.392
relative viability (NCI-H838; first compound 2.53 µM): 0.39
relative viability (SW 900; first compound 0.253 µM): 0.579
relative viability (SW 900; first compound 0.8 µM): 0.955
relative viability (SW 900; first compound 2.53 µM): 0.495
relative viability (UMC-11; first compound 0.08 µM): 0.692
relative viability (UMC-11; first compound 0.253 µM): 0.703
relative viability (UMC-11; first compound 0.8 µM): 0.879
relative viability (UMC-11; first compound 2.53 µM): 0.632
